# Reference: patent publication US6608086B2, “Dihydropyridines and new uses thereof” (Synaptic Pharmaceutical Corporation, priority 1993, dated 2003)
# Structures can show the parent of a compound that is named as a salt.
row,SMILES,melting point
1,"COC(=O)C1=C(C)NC(C)=C(C(=O)N(C)CCCN2CCC(c3ccccc3)(c3ccccc3)CC2)C1c1ccc([N+](=O)[O-])cc1 (centres unmarked) (as salt: hydrochloride) (hydrate or solvate) [Example 46, hydrochloride hemihydrate]",179 to 180 °C
2,"CC(=O)C1=C(C)NC(C)=C(C(=O)NCCCN2CCC(c3ccccc3)(c3ccccc3)CC2)C1c1ccc([N+](=O)[O-])cc1 (centres unmarked) (as salt: hydrochloride) (hydrate or solvate) [Example 47, 5-Acetyl-1,4-dihydro-2,6-dimethyl-4-(4-nitrophenyl)-3-{N-[3-(4,4-diphenylpiperidin-1-yl)propyl]}carboxamidopyridine]",173 to 174 °C
3,"COC(=O)C1=C(C)NC(C)=C(C(=O)OCCCN2CCC(c3ccccc3)CC2)C1c1ccc([N+](=O)[O-])cc1 (centres unmarked) (as salt: hydrochloride) (hydrate or solvate) [Example 48, 1,4-Dihydro-5-methazycarbonyl-2,6-dimethyl-4-(4-nitrophenyl)-3-[3-(4-phenylpiperidin-1-yl)propoxy]}carbonylpyridine hydrochloride hydrate]",139 to 140 °C
4,"COC(=O)C1=C(C)NC(C)=C(C(=O)OCCCN2CCCCC2)C1c1ccc([N+](=O)[O-])cc1 (centres unmarked) (as salt: hydrochloride) (hydrate or solvate) [Example 50, 1,4-Dihydro-5-methoxycarbonyl-2,6-dimethyl-4-(4-nitrophenyl)-3-[3-(piperidin-1-yl)propoxy]carbonylpyridine hydrochloride etherate]",128 to 129 °C
5,"COC(=O)C1=C(C)NC(C)=C(C(=O)NCCCN2CCCCC2)C1c1ccc([N+](=O)[O-])cc1 (centres unmarked) (as salt: hydrochloride) (hydrate or solvate) [Example 51, 1,4-Dihydro-3-methoxycarbonyl-2,6-dimethyl-4-(4-nitrophenyl)-5-{N-[3-(piperidin-1-yl)propyl]}carboxamidopyridine hydrochloride etherate]",150 to 150.5 °C
6,"COC(=O)C1=C(C)NC(C)=C(C(=O)NCCN2CCC(c3ccccc3)(c3ccccc3)CC2)C1c1ccc([N+](=O)[O-])cc1 (centres unmarked) (as salt: hydrochloride) (hydrate or solvate) [Example 52, 1,4-Dihydro-3-methoxycarbonyl-2,6-dimethyl-4-(4-nitrophenyl)-5-{N-[2-(4,4-diphenylpiperidin-1-yl)ethyl]}carboxamidopyridine hydrochloride hemihydrate]",170 to 171 °C
7,"CC1=C(C(N)=O)C(c2ccc([N+](=O)[O-])cc2)C(C(=O)NCCN2CCC(c3ccccc3)(c3ccccc3)CC2)=C(C)N1 (centres unmarked) (as salt: hydrochloride) (hydrate or solvate) [Example 54, 5-Carboxamide-1,4-dihydro-2,6-dimethyl-4-(4-nitrophenyl)-3-{N-[2-(4,4-diphenylpiperidin-1-yl)ethyl]}carboxamidopyridine hydrochloride hydrate]",193 to 194 °C
8,"COC(=O)C1=C(C)NC(C)=C(C(=O)NCCCN2CCc3cc(OC)c(OC)cc3C2)C1c1ccc([N+](=O)[O-])cc1 (centres unmarked) (as salt: hydrochloride) (hydrate or solvate) [Example 57, 1,4-Dihydro-3-methoxycarbonyl-5-{N-[3-(1,2,3,4-tetrahydro-6,7-dimethoxyisoquinolin-2-yl)propyl]}carboxamido-2,6-dimethyl-4-(4-nitrophenyl)pyridine hydrochloride hydrate]",161 to 162 °C
9,"COC(=O)C1=C(C)NC(C)=C(C(=O)NCCCN2CCc3ccccc3C2)C1c1ccc([N+](=O)[O-])cc1 (centres unmarked) (as salt: hydrochloride) (hydrate or solvate) [Example 59, 1,4-Dihydro-5-{N-[3-(1,2,3,4-tetrahydroisoquinolin-2-yl)propyl]}carboxamido-3-methoxycarbonyl-2,6-dimethyl-4-(4-nitrophenyl)pyridine hydrochloride hydrate]",145 to 146 °C
10,"COC(=O)C1=C(C)NC(c2ccoc2)=C(C(=O)NCCCN2CCC(c3ccccc3)CC2)C1c1ccc([N+](=O)[O-])cc1 (centres unmarked) (as salt: hydrochloride) (hydrate or solvate) [Example 65, 2-(Furan-3-yl)-1,4-dihydro-5-methoxycarbonyl-6-methyl-4-(4-nitrophenyl)-5-{N-[3-(4-phenylpiperidin-1-yl)propyl]}carboxamidopyridine hydrochloride hydrate]",205 to 210 °C (dec.)
11,"CCC1=C(C(=O)NCCCN2CCC(c3ccccc3)CC2)C(c2ccc([N+](=O)[O-])cc2)C(C(=O)OC)=C(C)N1 (centres unmarked) (as salt: hydrochloride) (hydrate or solvate) [Example 74, 2-Ethyl-1,4-dihydro-5-methoxycarbonyl-6-methyl-4-(4-nitro)phenyl-3-(N-(3-(4-phenylpiperidin-1-yl)propyl)) carboxamidopyridine hydrochloride hydrate]",209 to 214 °C (dec.)
12,"COC(=O)C1=C(C)NC(c2ccccc2)=C(C(=O)NCCCN2CCC(c3ccccc3)(c3ccccc3)CC2)C1c1ccc([N+](=O)[O-])cc1 (centres unmarked) (as salt: hydrochloride) (hydrate or solvate) [Example 78, 1,4-Dihydro-5-methoxycarbonyl-6-methyl-4-(4-nitro)phenyl-2-phenyl-3-(N-(3-(4,4-diphenylpiperidin-1-yl)propyl))carboxamidopyridine hydrochloride hydrate]",210 to 215 °C (dec.)
13,"CCC1=C(C(N)=O)C(c2ccc([N+](=O)[O-])cc2)C(C(=O)NCCCN2CCC(O)(c3ccccc3)CC2)=C(CC)N1 (centres unmarked) (as salt: hydrochloride) (hydrate or solvate) [Example 100, 5-Carboxamido-2,6-diethyl-1,4-dihydro-3-{N-(3-(4-hydroxy-4-phenylpiperidin-1-yl)propyl]}carboxamido-4-(4-nitrophenyl)pyridine hydrochloride hydrate]",165 °C (dec.)
14,"CCC1=C(C(N)=O)C(c2ccc([N+](=O)[O-])cc2)C(C(=O)NCCCN2CCN(c3ccccc3)CC2)=C(CC)N1 (centres unmarked) (as salt: hydrochloride) (hydrate or solvate) [Example 104, 5-Carboxamido-2,6-diethyl-1,4-dihydro-4-(4-nitrophenyl)-3-{N-[3-(4-phenylpiperazin-1-yl)propyl]}carboxamido-pyridine hydrochloride hydrate]",160 °C (dec.)
15,"CCC1=C(C(N)=O)C(c2ccc([N+](=O)[O-])cc2)C(C(=O)NCCCN2CCC3(CC2)C(=O)NCN3c2ccccc2)=C(CC)N1 (centres unmarked) (as salt: hydrochloride) (hydrate or solvate) [Example 105, 5-Carboxamido-2,6-diethyl-1,4-dihydro-4-(4-nitrophenyl)-3-{N-[3-(1-phenyl-4-oxo-1,3,8-triazaspiro[4.3]decan-8-yl)propyl]}carboxamidopyridine hydrochloride hydrate]",187 °C (dec.)
16,"CCC1=C(C(N)=O)C(c2ccc([N+](=O)[O-])cc2)C(C(=O)NCCCN2CCC(C)(c3ccccc3)CC2)=C(CC)N1 (centres unmarked) (as salt: hydrochloride) (hydrate or solvate) [Example 106, 5-Carboxamido-2,6-diethyl-1,4-dihydro-3-{N-[3-(4-Methyl-4-phenylpiperidin-1-yl)propyl]}carboxamido-4-(4-nitrophenyl)pyridine hydrochloride hydrate]",166 °C (dec.)
17,CC1=C(C#N)C(c2ccc([N+](=O)[O-])cc2)C(C(=O)NCCCN2CCC(c3ccccc3)(c3ccccc3)CC2)=C(C)N1 (centres unmarked) (as salt: hydrochloride) [Example 37],252 °C (dec.)
18,"COc1cc2c(cc1OC)CN(CCCNC(=O)C1=C(C)NC(C)=C(C(N)=O)C1c1ccc([N+](=O)[O-])cc1)CC2 (centres unmarked) (as salt: hydrochloride) [Example 58, 5-Carboxamido-1,4-dihydro-3-{N-[3-(1,2,3,4-tetrahydro-6,7-dimethoxyisoquinolin-2-yl)propyl]}carboxamido-2,6-dimethyl-4-(4-nitrophenyl)pyridine hydrochloride]",180 to 181 °C
19,"CCC1=C(C(=O)NC2CCN(Cc3ccccc3)CC2)C(c2ccc([N+](=O)[O-])cc2)C(C(=O)OC)=C(C)N1 (centres unmarked) (as salt: hydrochloride) [Example 75, 2-Ethyl-1,4-dihydro-5-methoxycarbonyl-6-methyl-4-(4-nitro)phenyl-3-(N-(N-phenylmethyl)piperidin-4-yl)carboxamidopyridine hydrochloride]",221 to 224 °C (dec.)
20,"CCC1=C(C(=O)NCCCN2CCC(c3ccccc3)(c3ccccc3)CC2)C(c2ccc([N+](=O)[O-])cc2)C(C(N)=O)=C(C)N1 (centres unmarked) (as salt: hydrochloride) [Example 81, 5-carboxamido-2-ethyl-1,4-dihydro-6-methyl-4-(4-nitro)phenyl-3-(N-(3-(4,4-diphenylpiperidin-1-yl)propyl))carboxamidopyridine hydrochloride]",243 to 248 °C (dec.)
21,"COc1ccc(C2(c3ccccc3)CCN(CCCNC(=O)C3=C(C)NC(C)=C(C(N)=O)C3c3ccc([N+](=O)[O-])cc3)CC2)cc1 (centres unmarked) (as salt: hydrochloride) [Example 98, 5-Carboxamido-1,4-dihydro-3-{N-[3-(4-(4-methoxyphenyl)-4-phenylpiperidin-1-yl)propyl]}carboxamido-2,6-dimethyl-4-(4-nitrophenyl)pyridine hydrochloride]",185 °C (dec.)
22,"CCC1=C(C(N)=O)C(c2ccc([N+](=O)[O-])cc2)C(C(=O)NCCCN2CCC(c3ccc(OC)cc3)(c3ccc(OC)cc3)CC2)=C(CC)N1 (centres unmarked) (as salt: hydrochloride) [Example 103, 5-Carboxamido-2,6-diethyl-1,4-dihydro-3-{N-[3-(4,4-bis-(4-methoxyphenyl)piperidin-1-yl)propyl]}carboxamido}-4-(4-nitrophenyl)pyridine hydrochloride]",175 °C (dec.)
23,"CCC1=C(C(=O)NCCCN2CCC(c3ccccc3)(c3ccccc3)CC2)C(c2ccc([N+](=O)[O-])cc2)C(C(=O)NC)=C(COCCN=[N+]=[N-])N1 (centres unmarked) (as salt: hydrochloride) [Example 151, 2-((2-Azidoethyl)oxy)methyl-6-ethyl-1,4-dihydro-3-(N-methyl)carboxamido-4-(4-nitro)phenyl-5-(N-(3-(4,4-diphenylpiperidin-1-yl)propyl))carboxamidopyridine]",200 °C (dec.)
